Each block holds one molecule with its values, some of them ahead of it.
What was measured:
[1] = target: T1, FpGNAT (acyl-CoA N-acetyltransferase from F. prausnitzii) (Faecalibacterium duncaniae, UniProt C7H1G6); test: LC-MS/MS end-point acetylation assay; type: biochemical; settings: 1 mM 5-ASA
T1 sequence (C7H1G6 1-201): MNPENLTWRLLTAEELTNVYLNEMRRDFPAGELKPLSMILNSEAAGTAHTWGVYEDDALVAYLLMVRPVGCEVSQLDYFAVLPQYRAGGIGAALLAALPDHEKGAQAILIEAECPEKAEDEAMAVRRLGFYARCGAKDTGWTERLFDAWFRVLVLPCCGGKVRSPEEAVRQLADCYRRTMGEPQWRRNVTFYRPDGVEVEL

[2] = tested on: FcTHL (Firmicutes CAG:176 thiolase); test: LC-MS/MS of N-acetyl 5-ASA formed, Michaelis-Menten; type: biochemical, Firmicutes bacterium CAG:176; settings: 1 mM acetyl-CoA constant; 20 mM HEPES pH 7.5, 50 mM NaCl, 1 mM MgCl2, 1 mM TCEP, 5 uM enzyme, 37 °C
[3] = target: Firmicutes CAG:176 thiolase (FcTHL) (Firmicutes CAG:176 (uncultured Firmicutes)); test: crystal structure

Km [2]: 1880 ± 460 µM
Molecule: Nc1ccc(O)c(C(=O)O)c1 [5-ASA]
LC-MS/MS end-point acetylation assay ([1]; 1 mM acetyl-CoA, 50 uM enzyme, pH 7.5, 37 °C, 6 h): convert 5-ASA to N-acetyl-5-ASA in the presence of acetyl-CoA

Molecule: CC(=O)SCCNC(=O)CCNC(=O)[C@H](O)C(C)(C)COP(=O)(O)OP(=O)(O)OC[C@H]1O[C@@H](n2cnc3c(N)ncnc32)[C@H](O)[C@@H]1OP(=O)(O)O [acetyl-CoA]
LC-MS/MS end-point acetylation assay ([1]; acetyl donor, same): convert 5-ASA to N-acetyl-5-ASA in the presence of acetyl-CoA

stoichiometry N [3]: 4
Molecule: Firmicutes CAG:176 thiolase (FcTHL) (enzyme)

— PMC10928503 (Nature medicine, 2023)
